Experimental data: patent US4063014A, “4"-O-sulfonyl erythromycin-9-O-oxime derivatives” (Abbott Laboratories, priority 1975, dated 1977)

Test system: S.aureus (Smith)
Assay: S.aureus (Smith) infection, oral medication
Assay type: in vivo
Set-up: DOSAGE LEVELS 300 / DOSAGE LEVELS 150 / DOSAGE LEVELS 75 / DOSAGE LEVELS 37.5 / DOSAGE LEVELS 18.75: unit not given here
Settings: for DOSAGE LEVELS 18.75: dosage level 18.75, infection 10-100 LD50, Rt-IP; for DOSAGE LEVELS 37.5: dosage level 37.5, infection 10-100 LD50, Rt-IP; for DOSAGE LEVELS 75: dosage level 75, infection 10-100 LD50, Rt-IP; for DOSAGE LEVELS 150: dosage level 150, infection 10-100 LD50, Rt-IP; for DOSAGE LEVELS 300: dosage level 300, infection 10-100 LD50, Rt-IP

| Structure (SMILES) | DOSAGE LEVELS 18.75 | DOSAGE LEVELS 37.5 | DOSAGE LEVELS 75 | DOSAGE LEVELS 150 | DOSAGE LEVELS 300 | ED50 (Staphylococcus aureus, infection 10-100 LD50, Rt-IP, read-out: CD50 (the source's name)) |
| --- | --- | --- | --- | --- | --- | --- |
| CC[C@H]1OC(=O)[C@H](C)[C@@H](O[C@H]2C[C@@](C)(OC)[C@@H](OS(=O)(=O)CCNC(=S)Nc3ccccc3)[C@H](C)O2)[C@H](C)[C@@H](O[C@@H]2O[C@H](C)C[C@H](N(C)C)[C@H]2O)[C@](C)(O)C[C@@H](C)C(=NOC)[C@H](C)[C@@H](O)[C@]1(C)O [Example V, 4"-O-[β-(3-Phenylthioureido)-1-Ethyl]sulfonyl Erythromycin-A-9-O-Methyloxime] | 0 | 0 | 0 | 20 | 80 |  |
| CC[C@H]1OC(=O)[C@H](C)[C@@H](O[C@H]2C[C@@](C)(OC)[C@@H](OS(=O)(=O)CCNC(=O)c3ccc([N+](=O)[O-])cc3)[C@H](C)O2)[C@H](C)[C@@H](O[C@@H]2O[C@H](C)C[C@H](N(C)C)[C@H]2O)[C@](C)(O)C[C@@H](C)C(=NOC)[C@H](C)[C@@H](O)[C@]1(C)O [Example XV, 4"-O-[β-(p-Nitrobenzamido)ethyl]Sulfonyl Erythromycin A-9-O-Methyloxime] | 10 | 10 | 0 | 0 | 60 |  |
| CC[C@H]1OC(=O)[C@H](C)[C@@H](O[C@H]2C[C@@](C)(OC)[C@@H](OS(=O)(=O)CCNC(=O)Nc3ccccc3)[C@H](C)O2)[C@H](C)[C@@H](O[C@@H]2O[C@H](C)C[C@H](N(C)C)[C@H]2O)[C@](C)(O)C[C@@H](C)C(=NOC)[C@H](C)[C@@H](O)[C@]1(C)O [VI, 4"-O-[β-(3-Phenylureido)-Ethyl]sulfonyl Erythromycin A-9-O-Methyloxime] | 10 | 20 | 20 | 10 | 50 |  |
| CC[C@H]1OC(=O)[C@H](C)[C@@H](O[C@H]2C[C@@](C)(OC)[C@@H](OS(=O)(=O)CCNC(=O)CNC(=O)OCc3ccccc3)[C@H](C)O2)[C@H](C)[C@@H](O[C@@H]2O[C@H](C)C[C@H](N(C)C)[C@H]2O)[C@](C)(O)C[C@@H](C)C(=NOC)[C@H](C)[C@@H](O)[C@]1(C)O [XII, 4"-O-[β-(N-Carbobenzyloxyglycyl)Amidoethyl]Sulfonyl Erythromycin A-9-O-Methyloxime] | 20 | 0 | 0 | 0 | 30 | > 300 mg/kg |
| CC[C@H]1OC(=O)[C@H](C)[C@@H](O[C@H]2C[C@@](C)(OC)[C@@H](OS(=O)(=O)CCNS(=O)(=O)c3ccc([N+](=O)[O-])cc3)[C@H](C)O2)[C@H](C)[C@@H](O[C@@H]2O[C@H](C)C[C@H](N(C)C)[C@H]2O)[C@](C)(O)C[C@@H](C)C(=NOC)[C@H](C)[C@@H](O)[C@]1(C)O [XVII, 4"-O-[β-(p-Nitrobenzenesulfonamido)Ethyl]Sulfonyl Erythromycin A-9-O-Methyloxime] | 0 | 10 | 10 | 0 | 80 |  |
